Results as given in patent US20070093520A1, “Method of treatment of diarrhea-predominant irritable bowel syndrome in a subject” (priority 2005, published 2007).

System: diarrhea-predominant IBS subjects
Assay: 3007 Study: open-label 52-week safety study, adverse events and withdrawals
Details: C/C group

## Cc1nccn1C[C@H]1CCc2c(c3cccc4c3n2CCC4)C1=O [cilansetron, (R)-(−)-4,5,6,8,9,10-hexahydro-10-[(2-methyl-1H-imidazol-1-yl)methyl]-11H-pyrido-[3,2,1-jk]-carbazol-11-one]
  TEAE: Labyrinthitis NOS: 2 (<1%) n (%)
  TEAE: Lacrimal Disorders: 2 (<1%) n (%)
  TEAE: Lactose Intolerance: 0 n (%)
  TEAE: Laryngeal and Adjacent Sites Disorders NEC (Excl Infections and Neoplasms): 2 (<1%) n (%)
  TEAE: Laryngitis NOS: 2 (<1%) n (%)
  TEAE: Leiomyoma NOS: 1 (<1%) n (%)
  TEAE: Lethargy: 0 n (%)
  TEAE: Leukopenia NOS: 2 (<1%) n (%)
  TEAE: Leukopenias NEC: 2 (<1%) n (%)
  TEAE: Libido Decreased: 0 n (%)
  TEAE: Lid, Lash and Lacrimal Structural Disorders (Excl Congenital): 1 (<1%) n (%)
  TEAE: Lipid Metabolism Disorder NOS: 1 (<1%) n (%)
  TEAE: Lipid Metabolism and Deposit Disorders NEC: 1 (<1%) n (%)
  TEAE: Lipoma NOS: 2 (<1%) n (%)
  TEAE: Lower Respiratory Tract Signs and Symptoms: 1 (<1%) n (%)
  TEAE: Lymphadenopathy: 1 (<1%) n (%)
  TEAE: Lymphangitis and Lymphatic Disorders NEC: 1 (<1%) n (%)
  TEAE: Meniere's Disease: 1 (<1%) n (%)
  TEAE: Menorrhagia*: 1 (<1%) n (%)
  TEAE: Menstruation Irregular*: 0 n (%)
  TEAE: Menstruation and Uterine Bleeding NEC*: 1 (<1%) n (%)
  TEAE: Menstruation with Decreased Bleeding*: 1 (<1%) n (%)
  TEAE: Menstruation with Increased Bleeding*: 2 (1%) n (%)
  TEAE: Mental Disorders NEC: 0 n (%)
  TEAE: Mental Status Changes: 0 n (%)
  TEAE: Metabolism and Nutrition Disorders: 11 (4%) n (%)
  TEAE: Middle Ear Disorders NEC: 1 (<1%) n (%)
  TEAE: Motion Sickness: 0 n (%)
  TEAE: Myocardial Infarction: 1 (<1%) n (%)
  TEAE: Nail and Nail Bed Conditions (Excl Infections and Infestations): 0 n (%)
  TEAE: Nasal Congestion and Inflammations: 7 (3%) n (%)
  TEAE: Neoplasms Benign Site Unspecified NEC: 1 (<1%) n (%)
  TEAE: Neoplasms Benign, Malignant and Unspecified (Incl Cysts and Polyps): 9 (4%) n (%)
  TEAE: Normal Pregnancy, Labour and Delivery*: 1 (<1%) n (%)
  TEAE: Ocular Disorders NEC: 0 n (%)
  TEAE: Ocular Nerve and Muscle Disorders: 0 n (%)
  TEAE: Oedema NEC: 4 (2%) n (%)
  TEAE: Oedema NOS: 0 n (%)
  TEAE: Oedema Peripheral: 4 (2%) n (%)
  TEAE: Ovarian Cancer NOS*: 1 (<1%) n (%)
  TEAE: Ovarian Cystadenofibroma*: 0 n (%)
  TEAE: Ovarian Neoplasms Benign*: 0 n (%)
  TEAE: Ovarian Neoplasms Malignant (Excl Germ Cell)*: 1 (<1%) n (%)
  TEAE: Pain NOS: 2 (<1%) n (%)
  TEAE: Pain and Discomfort NEC: 5 (2%) n (%)
  TEAE: Palpitations: 2 (<1%) n (%)
  TEAE: Panic Attack: 0 n (%)
  TEAE: Panic Symptoms: 0 n (%)
  TEAE: Papulosquamous Conditions: 0 n (%)
  TEAE: Paranasal Sinus Disorders (Excl Infections and Neoplasms): 6 (2%) n (%)
  TEAE: Paranasal Sinus Hypersecretion: 1 (<1%) n (%)
  TEAE: Partial Vision Loss: 0 n (%)
  TEAE: Pelvic Pain NOS: 0 n (%)
  TEAE: Penile Disorders NEC (Excl Erection and Ejaculation)*: 0 n (%)
  TEAE: Penile Haemorrhage*: 0 n (%)
  TEAE: Perception Disturbances: 0 n (%)
  TEAE: Peripheral Embolism NOS: 0 n (%)
  TEAE: Peripheral Embolism and Thrombosis: 0 n (%)
  TEAE: Peripheral Vascular Disorders NEC: 2 (<1%) n (%)
  TEAE: Pharyngitis: 3 (1%) n (%)
  TEAE: Polydipsia: 0 n (%)
  TEAE: Polyuria: 0 n (%)
  TEAE: Posterior Capsule Opacification: 0 n (%)
  TEAE: Postnasal Drip: 0 n (%)
  TEAE: Pregnancy NOS*: 1 (<1%) n (%)
  TEAE: Pregnancy, Puerperium and Perinatal Conditions: 1 (<1%) n (%)
  TEAE: Premenopause*: 0 n (%)
  TEAE: Premenstrual Syndrome*: 1 (<1%) n (%)
  TEAE: Productive Cough: 1 (<1%) n (%)
  TEAE: Prostate and Seminal Vesicles Infections and Inflammations*: 2 (2%) n (%)
  TEAE: Prostatitis*: 2 (2%) n (%)
  TEAE: Proteinuria: 1 (<1%) n (%)
  TEAE: Pruritus NEC: 3 (1%) n (%)
  TEAE: Pruritus NOS: 3 (1%) n (%)
  TEAE: Psoriasis: 0 n (%)
  TEAE: Psychiatric Disorders: 15 (6%) n (%)
  TEAE: Psychotic Disorder NEC: 0 n (%)
  TEAE: Psychotic Disorder NOS: 0 n (%)
  TEAE: Purine Metabolism Disorders NEC: 2 (<1%) n (%)
  TEAE: Pyrexia: 2 (<1%) n (%)
  TEAE: Rash Macular: 0 n (%)
  TEAE: Rash NOS: 4 (2%) n (%)
  TEAE: Rashes, Eruptions and Exanthems NEC: 4 (2%) n (%)
  TEAE: Rate and Rhythm Disorders NEC: 2 (<1%) n (%)
  TEAE: Refractive Errors NOS: 1 (<1%) n (%)
  TEAE: Refractive and Accommodative Disorders: 1 (<1%) n (%)
  TEAE: Renal Lithiasis: 3 (1%) n (%)
  TEAE: Renal and Urinary Disorders: 13 (5%) n (%)
  TEAE: Reproductive System and Breast Disorders: 12 (5%) n (%)
  TEAE: Reproductive Tract Signs and Symptoms NEC: 1 (<1%) n (%)
  TEAE: Respiratory Tract Congestion: 1 (<1%) n (%)
  TEAE: Respiratory Tract Disorders NEC: 1 (<1%) n (%)
  TEAE: Respiratory, Thoracic and Mediastinal Disorders: 28 (11%) n (%)
  TEAE: Retinal Detachment: 1 (<1%) n (%)
  TEAE: Retinal Structural Change, Deposit and Degeneration: 1 (<1%) n (%)
  TEAE: Rhinitis Allergic NOS: 3 (1%) n (%)
  TEAE: Rhinitis NOS: 3 (1%) n (%)
  TEAE: Rhinitis Seasonal: 1 (<1%) n (%)
  TEAE: Rosacea: 1 (<1%) n (%)
  TEAE: Rosaceas: 1 (<1%) n (%)
  TEAE: Seasonal Allergy: 4 (2%) n (%)
  TEAE: Sexual Desire Disorders: 0 n (%)
  TEAE: Sick Sinus Syndrome: 0 n (%)
  TEAE: Sinus Arrhythmia: 0 n (%)
  TEAE: Sinus Congestion: 5 (2%) n (%)
  TEAE: Skin Disorder NOS: 0 n (%)
  TEAE: Skin Injuries and Mechanical Dermatoses: 1 (<1%) n (%)
  TEAE: Skin Lesion NOS: 1 (<1%) n (%)
  TEAE: Skin Neoplasms Benign: 0 n (%)
  TEAE: Skin Neoplasms Malignant and Unspecified (Excl Melanoma): 2 (<1%) n (%)
  TEAE: Skin Ulcer: 0 n (%)
  TEAE: Skin and Subcutaneous Tissue Disorders: 14 (5%) n (%)
  TEAE: Skin and Subcutaneous Tissue Ulcerations: 0 n (%)
  TEAE: Social Circumstances: 0 n (%)
  TEAE: Soft Tissue Neoplasms Benign NEC: 3 (1%) n (%)
  TEAE: Strabismus: 0 n (%)
  TEAE: Stress Incontinence: 1 (<1%) n (%)
  TEAE: Stress Symptoms: 0 n (%)
  TEAE: Structural and Other Bile Duct Disorders: 0 n (%)
  TEAE: Sugar Intolerance (Excl Glucose Intolerance): 0 n (%)
  TEAE: Suicidal Ideation: 0 n (%)
  TEAE: Suicidal and Self-Injurious Behaviour: 0 n (%)
  TEAE: Supraventricular Arrhythmias: 1 (<1%) n (%)
  TEAE: Supraventricular Tachycardia: 0 n (%)
  TEAE: Surgical and Medical Procedures: 1 (<1%) n (%)
  TEAE: Sweating Increased: 0 n (%)
  TEAE: Swelling Face: 0 n (%)
  TEAE: Tachycardia NOS: 1 (<1%) n (%)
  TEAE: Tenderness NOS: 0 n (%)
  TEAE: Thrombocytopenia: 0 n (%)
  TEAE: Thrombocytopenias: 0 n (%)
  TEAE: Thrombophlebitis Superficial: 0 n (%)
  TEAE: Thyroid Disorders NEC: 1 (<1%) n (%)
  TEAE: Thyroid Hypofunction Disorders: 1 (<1%) n (%)
  TEAE: Thyroid Neoplasms: 0 n (%)
  TEAE: Thyroid Nodule: 0 n (%)
  TEAE: Tinnitus: 1 (<1%) n (%)
  TEAE: Total Fluid Volume Decreased: 1 (<1%) n (%)
  TEAE: Tympanic Membrane Disorder NOS: 0 n (%)
  TEAE: Tympanic Membrane Disorders (Excl Infections): 0 n (%)
  TEAE: Upper Respiratory Tract Signs and Symptoms: 3 (1%) n (%)
  TEAE: Urinary Abnormalities: 5 (2%) n (%)
  TEAE: Urinary Frequency: 2 (<1%) n (%)
  TEAE: Urinary Incontinence: 1 (<1%) n (%)
  TEAE: Urinary Retention: 1 (<1%) n (%)
  TEAE: Urinary Tract Lithiasis (Excl Renal): 1 (<1%) n (%)
  TEAE: Urinary Tract Signs and Symptoms NEC: 0 n (%)
  TEAE: Urine Abnormal NOS: 1 (<1%) n (%)
  TEAE: Urticaria NOS: 1 (<1%) n (%)
  TEAE: Urticarias: 1 (<1%) n (%)
  TEAE: Uterine Disorders NEC*: 2 (1%) n (%)
  TEAE: Uterine Fibroids*: 1 (<1%) n (%)
  TEAE: Uterine Neoplasms Benign*: 1 (<1%) n (%)
  TEAE: Uterine Neoplasms*: 2 (1%) n (%)
  TEAE: Uterine Polyp NOS*: 2 (1%) n (%)
  TEAE: Vaginal Cyst*: 1 (<1%) n (%)
  TEAE: Vaginal Lesion*: 1 (<1%) n (%)
  TEAE: Varicose Vein Ruptured: 2 (<1%) n (%)
  TEAE: Varicose Veins Non-Site Specific: 2 (<1%) n (%)
  TEAE: Vascular Disorders: 13 (5%) n (%)
  TEAE: Vascular Hypertensive Disorders NEC: 8 (3%) n (%)
  TEAE: Vascular Hypotensive Disorders: 0 n (%)
  TEAE: Ventricular Arrhythmias and Cardiac Arrest: 1 (<1%) n (%)
  TEAE: Ventricular Extrasystoles: 1 (<1%) n (%)
  TEAE: Vertigo: 1 (<1%) n (%)
  TEAE: Visual Acuity Reduced: 0 n (%)
  TEAE: Vitreous Disorder NOS: 0 n (%)
  TEAE: Vulvovaginal Cysts and Neoplasms*: 1 (<1%) n (%)
  TEAE: Vulvovaginal Dryness*: 0 n (%)
